We go through one sequence from patent US20170320939A1, “COLL2-1 PEPTIDE AND ITS NITRATED FORM AS THERAPEUTIC TARGETS FOR OSTEOARTHRITIS TREATMENT” (Université de Liège, priority 2014, published 2017).

In test [1] the test system is OA synovial fibroblast cells. The test can be described thus: Intracellular H2O2 production in OA synovial fibroblast cells. The format is cell-based, human. The protocol:
1.1 Patients. Synovial tissue samples were obtained from 10 patients (8 women, 2 man; mean age 70 +/−6 years) with osteoarthritis (OA) of the knee at the time of total knee joint replacement surgery. All the subjects provided their informed consent.
1.2 Isolation and culture of synovial cells. Synovium biopsies were digested is with collagenase from Clostridium histolyticum, Type IA (1 mg/ml) (Sigma-Aldrich, Saint-Louis, USA) and 0.25% trypsin (Sigma Aldrich, Saint Louis, USA) with 0.68 mM EDTA in Tris buffer 0.1M, pH 7.4 in complete medium (CM) (DMEM (Dulbecco's Modified Eagle's Medium) Low Glucose supplemented with 10 mM HEPES, 100 U/ml penicillin, 100 μg/ml streptomycin, 2 mM glutamine and 10% fetal calf serum (Lonza, Verviers, Belgium)) for 1 hour at 37° C. The cells suspensions were passed through a 70-μm filter to remove any undigested tissue. The filtered cells suspensions were then collected by centrifugation at 800 g and were cultured in culture flasks. After 24 hours, medium was changed to eliminate non adherent cells. Synovial fibroblasts cells (SFC) were used after three passages.
1.3 Treatment of synovial fibroblast cells. Cells were seeded into a six-well plate at the density of 2×10^5 cells/well in 2 ml of CM. When the cells reached confluence, the CM was replaced with 1% serum medium for 24 h to keep the cells quiescent. Cells were incubated for 24 hours with or without peptides Coll2-1 (^108HRGYPGLDG^116; 0.45 and 4.5 nmol) or Coll2-1NO2 (^108HRGYPGLDG-NO2^116; 4 and 40 pmol) at a range of concentrations found in the blood of osteoarthritic patients.
1.5 Intracellular H2O2 and O2^∘^− productions. Levels of intracellular superoxide anion (O2^∘^−) and hydrogen peroxide (H2O2) were assessed spectrofluorimetrically by oxidation of specific probes: dihydroethidium (Molecular Probes, Leiden, The Netherlands) and H2DCFH-DA (Molecular Probes, Leiden, The Netherlands) respectively. Synovial cells seeded on 96-well plates (8×10^3 cells per well) were washed once with phosphate-buffered saline and then incubated with 50 μL of phosphate-buffered saline containing either 250 μM dihydroethidium or 200 μM H2DCFH-DA. The fluorescence intensity was measured every hour for 6 hours. The levels of O2^∘^− or H2O2 are expressed in arbitrary unit/living cell. The numbers of adherent cells were measured by crystal violet assay.

In the next test the test system is female Lewis rats. The test can be described thus: In-vivo study, S.C. injection compared to CIA (collagen induced arthritis) model. The conditions noted are these: for arthritis visual score, difference versus saline (Group 7): D17. The protocol: An in-vivo study was performed to evaluate the potential immunizing effect of Coll2-1 peptide. This effect was evaluated in comparison with two validated models of rheumatoid arthritis: CIA (Collagen induced arthritis) and SCW (Streptococcal cell walls). The peptide has been injected once subcutaneous, at the base of the tail (S.C.—evaluation of systemic inflammation) or intra-articular (I.A.—evaluation of mono-articular inflammation) in female Lewis rats. Naïve controls (saline) were considered. Animals were euthanized 21 or 28 days after injection.
All animals (n=108 females; 96.0-129.7 gr) included in the study were identified by a unique chip. They were randomly distributed into 8 study groups (n=16/group except nave controls n=6/group, n=8/each time point) before induction (DO) based on their body weight (FIG. 1). • Injected controls (2 groups) • Group 1: bovin type II collagen (CIA)—S.C. (n=16) • Group 2: streptococcal cell wail (SCW)—I.A. (n=16) • Test groups (4 groups) • Group 3: Peptide dose 200 μg/100 μl—S.C. (n=16) • Group 4: Peptide dose 20 μg/100 μl—S.C. (n=16) • Group 5: Peptide dose 5 μg/50 μl—I.A. (n=16) • Group 6: Peptide dose 0.5 μg/50 μl—I.A. (n=16) • Naïve controls (2 groups) • Group 7: saline S.C. (n=6) • Group 8: saline I.A. (n=6)
Two injection ways were chosen to evaluate the potential effect of the peptide: intra-articular (I.A.) and subcutaneous (S.C.), two route classically used in the art.
Coll2-1 peptide was administered either I.A. under a 50 μL volume into the right knee or S.C. under a 100 μL volume at the base of the tail.
SCW was administered I.A. into the right knee under a 50 μL volume. Bovine type II collagen (CIA) was administered under 100 μL volume at the base of the tail.
Two doses of the Coll2-1 peptide were tested in both conditions.
It was administered S.C. at 200 and 20 μg under 100 μL.
Coll2-1 peptide was administered once (DO).
Joint was considered arthritic when significant signs of redness and/or swelling was noted. Each paw was evaluated with a visual score (0-3) • 0: normal, no joint inflammation • 1: large joint inflammation • 2: medium joint inflammation • 3: small joint (distal) inflammation
A set of 4 values were recorded on each evaluation day. The 4 values were summed for analysis.
Right and left knees diameter were measured using a digital caliper.
Animals were euthanized 21 or 28 days after injection (D0). They were anesthetized with a subcutaneous injection of a Ketamin/Medetomidine mix and further euthanized by exsanguination.
Both entire knees from each animal were processed for histological analysis, They were decalcified in a HCl/EDTA mix (DC2, Qpath, VWR Belgium) for the appropriate time before inclusion in paraffin. Three frontal sections (5 μm) of each compartment were done 200 μm apart in the weight bearing zone using a microtome. Slides were stained according to a standard Safranin-O/Fast green protocol.
Slides were evaluated under a light microscope. Each slide was score for: • Infiltration of inflammatory cells in synovial tissue (0-3) • Inflammatory cells in the joint cavity (exudate) (0-3) • Cartilage proteoglycan depletion (0-3) • Loss of articular cartilage (0-3) • Bone erosion (0-3).
Infiltration of inflammatory cells in synovial tissue and inflammatory cells in the joint cavity were considered together (sum of the scores) as inflammatory parameters for the analysis of the detailed criteria.
Statistical analysis was performed with the appropriate test using GraphPad. • Visual score and evaluations (knee diameter measurements) were analyzed with a two way ANOVA followed, if positive, by Tukey's multiple comparison test. Graphs represented the mean of each group at each evaluated time point. • Histological scores were analyzed with a Kruskal Wallis for non-parametric values followed, if positive, by a Dunn's multiple comparison test. Graphs presented as box and whisker plots. Exact p values were provided and asterisks representation were also performed.

With HRGYPGLDG [Coll2-1], in test [1] (Coll2-1 at 4.5 nmol, 24 hours), the “intracellular production of H2O2” value is listed as “significantly increased”. Moreover, the H2O2 production entry in test [1] (increasing doses of Coll2-1 peptide) is reported as “increase”. In addition, the “inflammatory criteria (histology)” value with female Lewis rats (Coll2-1 20 μg S.C. (Gr4), 028) is “Significant increase”; with female Lewis rats (Coll2-1 200 μg S.C. (Gr3), D21), “Significant increase”. Moreover, the cartilage degradation criteria result is recorded as “Significant increase” in the test with female Lewis rats (Coll2-1 20 μg S.C. (Gr4), D28) and “Significant increase” in the test on female Lewis rats (Coll2-1 200 μg S.C. (Gr3), D28). Besides, the “loss of matrix proteoglycan” value in the test on female Lewis rats (Coll2-1 20 μg S.C. (Gr4), D28) is listed as “Significant increase”; with female Lewis rats (Coll2-1 200 μg S.C. (Gr3), D28), “Significant increase”. Further, the “subchondral bone modification score” value is “Significant increase” in the test on female Lewis rats (Coll2-1 20 μg S.C. (Gr4), D28) and “Significant increase” with female Lewis rats (Coll2-1 200 μg S.C. (Gr3), D21). Also, the “arthritis visual score, difference versus bovine type II collagen (Group 1)” value with female Lewis rats (Coll2-1 20 μg S.C. (Group 4), D21) was “statistically different”. For the same sequence, the “global histological score, right and left knees together, versus saline (Group 7)” value with female Lewis rats (Coll2-1 20 μg S.C. (Group 4), D28) was “significant increase”; in the test on female Lewis rats (Coll2-1 200 μg S.C. (Group 3), D21) it was “significant increase”. Also, the “arthritis visual score, difference versus saline (Group 7)” value with female Lewis rats (Coll2-1 20 μg/100 μl S.C. (Group 4)) and with female Lewis rats (Coll2-1 200 μg/100 μl S.C. (Group 3)) was “statistically significant” in each case. The “histological score (conclusion)” value in the test on female Lewis rats (collagen arthritis model, S.C. injection) was “increase”. Besides, in the test on female Lewis rats (single S.C. injection at the base of the tail, four limbs, D0 to D28), the arthritis visual score result is recorded as “induced an increase”.
